“And” between values parts separate entries of the source, which are not always exact repeats. Equal values may be shown once. Where a SMILES comes first, the peptide text is derived from it. The star is where a group is joined. Cbz = O=C(OCc1ccccc1)*; OtBu = CC(C)(C)O*
Experiments:
[1] = test system: TGF-β1; assay: TGF-β1 gene expression (qPCR, normalized over 18S) in human dermal fibroblasts; type: cell-based
Procedure: An examination of gene expression of TFG-β1 was conducted using a number of proteasome inhibitors including, proteasome inhibitor-1, curcumin, MG-132 and bortezomib. Human neonatal dermal fibroblasts (AllCells, Catalog No. HN006001) were maintained in Dulbecco's modified Eagle's medium (DMEM) supplemented with 10% fetal bovine serum. Early passage cells were plated at 2×10^4 cells/cm^2 and grown in humidified 5% CO2 at 37° C. for 24 hours. Spent media was replaced the following day with assay media including Proteasome inhibitor-1 was added in DMEM at 1 μM and 0.1 μM. Untreated cells were used as the control group. For the human osteogenesis PCR array, the experimental group was treated only at 1 μM. In addition, in separate trials, spent media was replace by assay media of curcumin added in DMEM at 10 μM and 100 μM, MG-132 in DMEM at 0.1 μM and 1 μM, and bortezomib in DMEM at 0.1 μm and 1 μM.
Phenol-chloroform extraction was performed to isolate the total RNA for real time polymerase chain reaction array. More specifically, the total RNA was prepared using TRI REAGENT (Ambion, product number 9738), wherein the total RNA was obtained from the human neonatal dermal fibroblasts. Note that isolation was performed as per the instructions provided with the TRI REAGENT. The RNA was used for subsequent quantitative polymerase chain reaction (qPRC) gene expression of TFG-β1 measured using hydrolysis probes (TAQMAN probes available from Applied Biosystems) as described further below.
Concentration and integrity of the obtained total RNA was assessed by absorbance in a spectrophotometer at 260 nm and 280 nm and by electrophoresis in 1% agarose with formaldehyde loading dye. For TAQMAN gene expression assays, cDNA was synthesized from 2 μg of total RNA using the High Capacity cDNA Reverse Transcription Kit (Applied Biosystems, product number 4368814), again following the protocol supplied with the kit. The resulting cDNA was diluted 1:10.
For TAQMAN gene expression, gene-specific fluorescent labeled TAQMAN primers for FAM-TFG-β1 (Applied Biosystems, product number Hs00998130.m1) and TAQMAN reference VIC-18S ribosomal RNA (Applied Biosystems, product number 4310893E) were used to target the gene of interest. A cocktail of universal master mix (Applied Biosystems, product number 4369016) was prepared individually for both set of primers which contained Taq Polymerase, dNTPs, and buffer. Template cDNA's were added separately to respective individual wells in triplicate samples. PCR was performed on StepOne Plus Real Time System instrument (Applied Biosystems). The amplification program consisted of 1 cycle of 95° C. with 10 minute hold (hot start) followed by 50 cycles of 95° C. with 15 second annealing hold and 1 minute 60° C. specified acquisition hold.
For human osteogenisis PCR array, total RNA was prepared using silica matrix purification using RNEASY MINI KIT (Qiagen, product number 74101) according to the manufacturer's recommendations. cDNA was synthesized from 1 μg of purified DNA-free RNA accordingly to RT^2First Strand Kit (SABiosciences, C-03). The resulting cDNA was diluted 1:30 and amplified. The procedure for the PCR array using real-time PCR is based on the RT^2 Profiler PCR array system instructions for Human Osteogenesis (SABiosciences, product number PAHS-026C). A cocktail reaction mix was setup as recommended by the PCR manufacturer (SABiosceiences, product number PA-012). PCR was performed using the same temperature parameters as used with the StepOne Plus Real Time System instrument. The Ct value of endogenous reference gene (i.e. 18s) was used to control for input RNA and then used to normalize target gene (i.e. TFG-β1) tested from the same cDNA sample ([…]), and then calibrated to an internal reference sample ([…]). Change in gene expression was determined by the expression 2̂-([…]). […]

[2] = biological target: 20S proteasomes (Homo sapiens, UniProt P28074); assay: Inhibition of 20S proteasome enzyme activity; type: biochemical; conditions: 0 nM to 10,000 nM, FIGS. 7-9
Procedure: The IC50 may be understood as the amount of a particular substance/molecule needed to inhibit a given biological process in vitro by 50% and may be an indicator of the potency of a compound. The activity of the proteasome may be quantified by measuring the amount of fluorescence produced by cleavage of a fluorogenic substrate, such as LLVY-AMC, which when released by proteasomal cleavage, may emit fluorescent light.
The enzyme activity of 20S proteasomes was measured upon increasing addition of the proteasome inhibitors PS-1, curcumin and genestein in concentrations ranging from 0 nM to 10,000 nM. In particular, FIG. 7 illustrates the inhibition of 20S proteasomes upon the addition of PS-1. […] FIG. 8 illustrates the inhibition of the 20S proteasomes upon the addition of curcumin. […] FIG. 9 illustrates the inhibition of the 20S proteasomes upon the addition of genestein.

[3] = test system: rat skin; assay: Tensile strength of rat skin after 28 days of treatment (Example 2); type: in vivo, rats; parameters: Tensile strength of rat skin, Mean: unit not given here; conditions: for Tensile strength of rat skin, individual samples: 100 μl per wound site daily for 5 days, samples 1-5, in N/mm²; for Tensile strength of rat skin, individual samples / Tensile strength of rat skin, Mean: after 28 days; for Tensile strength of rat skin, Mean: control mean 3.12114
Procedure: Testing of PS-1 was performed in rats and was provided at 1% and 5% in DMSO. The rats received 100 μl per wound site. The compound was administered daily for 5 days and skin was collected at 7 days, 14 days and 28 days. The biomechanical tensile strength of the skin was measured. Table 2 illustrates the testing data after 28 days for a control sample without treatment, 1% PS-1 in DMSO and 5% PS-1 in DMSO.

[4] = 0.1 μM inhibitor, FIG. 30, non-treated 1.50 (MG132) / 1.43 (bortezomib)
[5] = 1 μM inhibitor, FIG. 30, non-treated 1.50 (MG132) / 1.43 (bortezomib)

CC(C)C[C@@H](C=O)NC(=O)[C@H](CC(C)C)NC(=O)[C@H](CC(C)C)NC(=O)OCc1ccccc1 [MG132] (Cbz-Leu-Leu-Leu-aldehyde)
TFG-β1/18 mRNA levels [1, 4]: 2.12 a.u. | TFG-β1/18 mRNA levels [1, 5]: 1.49 a.u.

CC[C@H](C)[C@H](NC(=O)OCc1ccccc1)C(=O)N[C@@H](CCC(=O)OC(C)(C)C)C(=O)N[C@@H](C)C(=O)N[C@H](C=O)CC(C)C [PS-1, Z-Ile-Glu(OBu^t)-Ala-Leu-H] (Cbz-IE(OtBu)AL-aldehyde)
TFG-β1/18 mRNA levels ([1]; 0.1 μM PS-1, FIG. 28, nontreated 1.15, decrease relatively statistically insignificant): ~1.03 a.u. | TFG-β1/18 mRNA levels ([1]; 1.0 μM PS-1, FIG. 28, nontreated 1.15, decrease relatively statistically insignificant): ~1.11 a.u. | enzyme activity of 20S proteasomes with increasing inhibitor concentration (in words) [2]: enzyme activity decreased | Tensile strength of rat skin, individual samples ([3]; 1% PS-1 in DMSO): 3.707 and 3.47 and 3.655 and 4.169 and 4.476 | Tensile strength of rat skin, Mean ([3]; 1% PS-1 in DMSO): 3.895 | Tensile strength of rat skin, individual samples ([3]; 5% PS-1 in DMSO): 4.067 and 4.379 and 3.805 and 5.042 and 5.192 | strength of rat skin tissue (in words) ([3]; 5% PS-1 in DMSO, 28 days, FIG. 6): relatively stronger tissue | Tensile strength of rat skin, Mean ([3]; 5% PS-1 in DMSO): 4.497

CC(C)C[C@H](NC(=O)[C@H](Cc1ccccc1)NC(=O)c1cnccn1)B(O)O [bortezomib]
TFG-β1/18 mRNA levels [1, 4]: 1.99 a.u. | TFG-β1/18 mRNA levels [1, 5]: 1.97 a.u.

COc1cc(/C=C/C(=O)CC(=O)/C=C/c2ccc(O)c(OC)c2)ccc1O [curcumin]
TFG-β1/18 mRNA levels ([1]; 10 μM curcumin, FIG. 29, non-treated 1.15): 0.644 a.u. | TFG-β1/18 mRNA levels ([1]; 100 μM curcumin, FIG. 29, non-treated 1.15): 1.53 a.u. | enzyme activity of 20S proteasomes with increasing inhibitor concentration (in words) [2]: shown to decrease as well

— patent publication US20110009332A1, “Therapeutic Treatment Of Wounds” (SOUTHWEST RESEARCH INSTITUTE, priority 2009, published 2011)
